# Laboratory results from patent US7923561B2 (Hoffmann-La Roche Inc., priority 2006, dated 2011).
# Molecular target: T1, recombinant human 5-HT5A receptor (Homo sapiens, UniProt P47898)
# T1 construct: expressed in transfected cells; host or cells: HEK-EBNA (Human Embryonic Kidney-EBNA) cells, transient cDNA expression, membranes
# Assay: [3H]LSD radioligand binding assay, membranes of HEK-EBNA cells transiently expressing 5-HT5A receptors
# Details: [3H]LSD approx. 1 nM, SPA beads, 120 min at room temperature; Ki from IC50 by Cheng-Prussoff equation
# Description: A [^3H]LSD radioligand binding assay was used to determine the affinity of the compounds for the recombinant human 5-HT5A receptor, in membranes from transiently (cDNA) expressed 5-HT5A receptors in Human Embryonic Kidney-EBNA (HEK-EBNA) cells. Assay buffer consisted of Tris (50 mM) buffer containing 1 mM EGTA, 10 mM MgCl2 (pH 7.4) and 10 μM pargyline. The binding assay was carried out in 96-well-plates in the presence of [^3H]LSD (approximately 1 nM), approximately 2 μg/well of membrane protein, and 0.5 mg of Ysi-poly-1-lysine SPA beads in a final volume of 200 μl of buffer. Non-specific binding was defined using methiothepin 2 μM. Compounds were tested at 10 concentrations. All assays were conducted in duplicate and repeated at least two times. Assay plates were incubated for 120 min at room temperature before centrifugation. Bound ligand was determined using a Packard Topcount scintillation counter. IC50 values were calculated using a non-linear curve fitting program and Ki values calculated using the Cheng-Prussoff equation.
# T1 sequence (P47898 whole entry): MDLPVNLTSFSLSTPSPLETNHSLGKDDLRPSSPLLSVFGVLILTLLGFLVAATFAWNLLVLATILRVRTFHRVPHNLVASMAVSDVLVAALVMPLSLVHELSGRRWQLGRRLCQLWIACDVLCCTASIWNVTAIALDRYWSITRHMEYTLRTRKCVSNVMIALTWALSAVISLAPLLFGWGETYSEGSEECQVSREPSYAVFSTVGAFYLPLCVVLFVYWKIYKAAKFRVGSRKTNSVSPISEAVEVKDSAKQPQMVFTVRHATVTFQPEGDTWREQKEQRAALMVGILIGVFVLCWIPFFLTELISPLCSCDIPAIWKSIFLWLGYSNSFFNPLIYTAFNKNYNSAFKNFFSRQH
row,Compound,Ki [nM]
1,"c1ccc2c(c1)CC[C@H]2Nc1ccc2c(NCc3ncc[nH]3)cccc2n1 [Example 49, N5-(1H-Imidazol-2-ylmethyl)-N2-(R)-indan-1-yl-quinoline-2,5-diamine]",22.5
2,"Cc1ccc(C(=O)c2cccc3nc(N[C@@H]4CCc5ccccc54)ccc23)cc1 [Example 97, [2-((R)-Indan-1-ylamino)-(4-methyl-phenyl)-quinolin-5-yl]-methanone]",37.4
3,"Clc1ccc(Nc2cccc3nc(N[C@@H]4CCc5ccccc54)ccc23)cc1 [Example 7, N5-(4-Chloro-phenyl)-N2-(R)-indan-1-yl-quinoline-2,5-diamine]",2.84
4,"Fc1ccc(Nc2cccc3nc(N[C@@H]4CCc5ccccc54)ccc23)cc1 [Example 77, N5-(4-Fluoro-phenyl)-N2-(R)-indan-1-yl-quinoline-2,5-diamine]",6.38
5,"COc1ccc(C(=O)c2cccc3nc(N[C@@H]4CCc5ccccc54)ccc23)cc1 [Example 93, [2-((R)-Indan-1-ylamino)-(4-methoxy-phenyl)-quinolin-5-yl]-methanone]",15.8
6,"COc1cccc2c1C(Nc1ccc3c(NS(=O)(=O)c4cccc5c4ccn5C)cccc3n1)CC2 (racemic) [Example 61, rac-1-Methyl-1H-indole-4-sulfonic acid [2-(7-methoxy-indan-1-ylamino)-quinolin-5-yl]-amide]",4.66
7,"Fc1cc(F)cc(CNc2cccc3nc(NC4COc5ccccc54)ccc23)c1 (racemic) [Example 17, rac-N5-(3,5-Difluoro-benzyl)-N2-(2,3-dihydro-benzofuran-3-yl)-quinoline-2,5-diamine]",9.24
8,"c1ccc(-c2cccc3nc(N[C@@H]4CCc5ccccc54)ccc23)cc1 [Example 63, (R)-Indan-1-yl-(5-phenyl-quinolin-2-yl)-amine]",229
9,"COc1ccc2c(c1)C(Nc1ccc3c(NS(=O)(=O)c4ccc(F)cc4)cccc3n1)CC2 (racemic) [Example 21, rac-4-Fluoro-N-[2-(6-methoxy-indan-1-ylamino)-quinolin-5-yl]-benzenesulfonamide]",15.8
10,Cc1nc(CNc2cccc3nc(N[C@@H]4CCc5ccccc54)ccc23)c[nH]1 [Example 53],7.57
11,"COc1cccc2c1C(Nc1ccc3c(NS(=O)(=O)c4ccc(F)cc4)cccc3n1)CC2 (racemic) [Example 28, rac-4-Fluoro-N-[2-(7-methoxy-indan-1-ylamino)-quinolin-5-yl]-benzenesulfonamide]",4.23
12,"Clc1ccccc1-c1cccc2nc(N[C@@H]3CCc4ccccc43)ccc12 [Example 75, [5-(2-Chloro-phenyl)-quinolin-2-yl]-(R)-indan-1-yl-amine]",127
13,"Cc1ccccc1-c1cccc2nc(N[C@@H]3CCc4ccccc43)ccc12 [Example 65, (R)-Indan-1-yl-(5-o-tolyl-quinolin-2-yl)-amine]",173
14,"Fc1cc(F)cc(CNc2cccc3nc(N[C@@H]4CCc5ccccc54)ccc23)c1 [Example 6, N5-(3,5-Difluoro-benzyl)-N2-(R)-indan-1-yl-quinoline-2,5-diamine]",1.85
15,"O=C(c1cccc(F)c1)c1cccc2nc(N[C@@H]3CCc4ccccc43)ccc12 [Example 94, (3-Fluoro-phenyl)-[2-((R)-indan-1-ylamino)-quinolin-5-yl]-methanone]",117
16,"O=C(c1cc(F)cc(F)c1)c1cccc2nc(N[C@@H]3CCc4ccccc43)ccc12 [Example 100, (3,5-Difluoro-phenyl)-[2-((R)-indan-1-ylamino)-quinolin-5-yl]-methanone]",264
17,"O=S(=O)(Nc1cccc2nc(N[C@@H]3CCc4ccccc43)ccc12)c1ccc(F)cc1 [Example 1, 4-Fluoro-N-[2-((R)-indan-1-ylamino)-quinolin-5-yl]-benzenesulfonamide]",3.76
18,(4-Chloro-phenyl)-[2-((R)-indan-1-ylamino)-quinolin-5-yl]-methanone [Example 90],49.7
19,"COc1cccc2c1C(Nc1ccc3c(NS(=O)(=O)c4cc(F)cc(F)c4)cccc3n1)CCC2 (racemic) [Example 59, rac 3,5-Difluoro-N-[2-(8-methoxy-1,2,3,4-tetrahydro-naphthalen-1-ylamino)-quinolin-5-yl]-benzenesulfonamide]",13.4
20,"O=S(=O)(Nc1cccc2nc(N[C@@H]3CCc4ccccc43)ccc12)c1cc(F)cc(F)c1 [Example 11, 3,5-Difluoro-N-[2-((R)-indan-1-ylamino)-quinolin-5-yl]-benzenesulfonamide]",5.86

row,Compound,Ki [nM]
1,"O=C(c1ccc(F)cc1)c1cccc2nc(N[C@@H]3CCc4ccccc43)ccc12 [Example 83, (4-Fluoro-phenyl)-[2-((R)-indan-1-ylamino)-quinolin-5-yl]-methanone]",11.5
2,"c1ccc2c(c1)CC[C@H]2Nc1ccc2c(Nc3cccc4cc[nH]c34)cccc2n1 [Example 69, N2-(R)-Indan-1-yl-N5-(1H-indol-7-yl)-quinoline-2,5-diamine]",5.61
3,"Fc1ccc(CNCc2cccc3nc(N[C@@H]4CCc5ccccc54)ccc23)cc1 [Example 81, {5-[(4-Fluoro-benzylamino)-methyl]-quinolin-2-yl}-(R)-indan-1-yl-amine]",151
4,"COc1cccc2c1C(Nc1ccc3c(NS(=O)(=O)c4cc(F)cc(F)c4)cccc3n1)CC2 (stereo not shown) [Example 39, 3,5-Difluoro-N-[2-(7-methoxy-indan-1-ylamino)-quinolin-5-yl]-benzenesulfonamide]",4.57
5,"c1ccc2c(c1)CC[C@H]2Nc1ccc2c(NCc3cnc[nH]3)cccc2n1 [Example 43, N5-(3H-Imidazol-4-ylmethyl)-N2-(R)-indan-1-yl-quinoline-2,5-diamine]",6.45
6,"Cc1cc(Nc2cccc3nc(N[C@@H]4CCc5ccccc54)ccc23)n(C)n1 [Example 76, N5-(2,5-Dimethyl-2H-pyrazol-3-yl)-N2-(R)-indan-1-yl-quinoline-2,5-diamine]",33
7,"c1ccc2c(c1)CC[C@H]2Nc1ccc2c(NCc3cccc4[nH]ccc34)cccc2n1 [Example 56, N2-(R)-Indan-1-yl-N5-(1H-indol-4-ylmethyl)-quinoline-2,5-diamine]",1.65
8,"Fc1cc(F)cc(CNc2cccc3nc(NC4Cc5ccccc5C4)ccc23)c1 [Example 87, N5-(3,5-Difluoro-benzyl)-N2-indan-2-yl-quinoline-2,5-diamine]",56.2
9,"COc1cccc2c1C(Nc1ccc3c(NCc4c[nH]cn4)cccc3n1)CC2 (stereo not shown) [Example 58, N5-(1H-Imidazol-4-ylmethyl)-N2-(7-methoxy-indan-1-yl)-quinoline-2,5-diamine]",2.36
10,"COc1ccc2c(c1)C(Nc1ccc3c(NS(=O)(=O)c4cc(F)c(F)c(F)c4)cccc3n1)CC2 (single isomer, unassigned; (+)) [Example 20, (+)-3,4,5-Trifluoro-N-[2-(6-methoxy-indan-1-ylamino)-quinolin-5-yl]-benzenesulfonamide]",18.1
11,"COc1cccc2c1C(Nc1ccc3c(NCc4c[nH]nn4)cccc3n1)CCC2 (racemic) [Example 68, Rac-N2-(8-Methoxy-1,2,3,4-tetrahydro-naphthalen-1-yl)-N5-(1H-[1,2,3]triazol-4-ylmethyl)-quinoline-2,5-diamine]",15.3
12,"O=S(=O)(Nc1cccc2nc(NC3CC4CCC3C4)ccc12)c1ccc(F)cc1 (racemic) [Example 60, rac-exo-N-[2-(Bicyclo[2.2.1]hept-2-ylamino)-quinolin-5-yl]-4-fluoro-benzenesulfonamide]",197
13,"Cn1cc(CNc2cccc3nc(N[C@@H]4CCc5ccccc54)ccc23)cn1 [Example 55, N2-(R)-Indan-1-yl-N5-(1-methyl-1H-pyrazol-4-ylmethyl)-quinoline-2,5-diamine]",25.6
14,"O=C(Nc1cccc2nc(N[C@@H]3CCc4ccccc43)ccc12)c1ccc(F)cc1 [Example 78, 4-Fluoro-N-[2-((R)-indan-1-ylamino)-quinolin-5-yl]-benzamide]",91.6
15,"c1ccc2c(c1)CC(Nc1ccc3c(NCc4cccc5[nH]ccc45)cccc3n1)C2 [Example 88, N2-Indan-2-yl-N5-(1H-indol-4-ylmethyl)-quinoline-2,5-diamine]",44.3
16,"c1cncc(CNc2cccc3nc(NC4COc5ccccc54)ccc23)c1 (single isomer, unassigned; (+)) [Example 27, (+)-N2-2,3-Dihydro-benzofuran-3-yl-N5-pyridin-3-ylmethyl-quinoline-2,5-diamine]",25.8
17,"O=S(=O)(Nc1cccc2nc(N[C@@H]3CCc4ccccc43)ccc12)c1ccc(Cl)s1 [Example 5, 5-Chloro-thiophene-2-sulfonic acid [2-((R)-indan-1-ylamino)-quinolin-5-yl]-amide]",3.62
18,"c1ccc2c(c1)CC[C@H]2Nc1ccc2c(Nc3ccc4[nH]ccc4c3)cccc2n1 [Example 72, N2-(R)-Indan-1-yl-N5-(1H-indol-5-yl)-quinoline-2,5-diamine]",6
19,"COc1ccc2c(c1)C(Nc1ccc3c(NCc4cccc(S(C)(=O)=O)c4)cccc3n1)CC2 (single isomer, unassigned; (+)) [Example 30, (+)-N5-(3-Methanesulfonyl-benzyl)-N2-(6-methoxy-indan-1-yl)-quinoline-2,5-diamine]",19
20,"Fc1cc(F)cc(CNc2cccc3nc(NC4COc5ccccc54)ccc23)c1 (single isomer, unassigned; (+)) [Example 32, (+)-N5-(3,5-Difluoro-benzyl)-2,3-dihydro-benzofuran-3-yl-quinoline-2,5-diamine]",12.7
